ChEMBL document CHEMBL1201862, “PubChem BioAssay data set” (2004)
Activity calls are given as the source filed them.

Key:
H9c2 = assay: cells; type: functional, cell-based; settings: Rattus norvegicus, H9c2, Myocardium
[1] = molecular target: T1, Calpain-2 catalytic subunit (Sus scrofa, UniProt P43367); assay: m-calpain protease blockers, concentration series – biochemical, fluorogenic peptide substrate, dose response (AID 1420); type: functional
T1 sequence (P43367 whole entry): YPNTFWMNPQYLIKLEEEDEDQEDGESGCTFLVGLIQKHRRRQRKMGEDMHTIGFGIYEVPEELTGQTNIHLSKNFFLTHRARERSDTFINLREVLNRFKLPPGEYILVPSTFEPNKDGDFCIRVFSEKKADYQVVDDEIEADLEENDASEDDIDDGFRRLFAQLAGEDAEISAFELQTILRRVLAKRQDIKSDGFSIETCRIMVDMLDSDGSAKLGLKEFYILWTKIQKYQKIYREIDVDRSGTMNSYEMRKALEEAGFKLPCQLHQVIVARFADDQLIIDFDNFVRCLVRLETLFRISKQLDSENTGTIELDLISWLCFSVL

[2] = Luminescence Cell-Based Dose Retest to Confirm Inhibitors of Cancer Stem Cells. [Related pubchem assays (depositor defined):AID2717, AID2721]; type: functional; settings: Homo sapiens
cells = type: functional
Vero = assay: cells; type: functional; settings: Chlorocebus sabaeus
Large T antigen = Large T antigen (Simian virus 40, UniProt P03070); type: functional, Betapolyomavirus macacae;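 further: Confirmatory-stage PubChem screen for compounds that inhibit SV40 T antigen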
Chain of Large T antigen (P03070 whole entry): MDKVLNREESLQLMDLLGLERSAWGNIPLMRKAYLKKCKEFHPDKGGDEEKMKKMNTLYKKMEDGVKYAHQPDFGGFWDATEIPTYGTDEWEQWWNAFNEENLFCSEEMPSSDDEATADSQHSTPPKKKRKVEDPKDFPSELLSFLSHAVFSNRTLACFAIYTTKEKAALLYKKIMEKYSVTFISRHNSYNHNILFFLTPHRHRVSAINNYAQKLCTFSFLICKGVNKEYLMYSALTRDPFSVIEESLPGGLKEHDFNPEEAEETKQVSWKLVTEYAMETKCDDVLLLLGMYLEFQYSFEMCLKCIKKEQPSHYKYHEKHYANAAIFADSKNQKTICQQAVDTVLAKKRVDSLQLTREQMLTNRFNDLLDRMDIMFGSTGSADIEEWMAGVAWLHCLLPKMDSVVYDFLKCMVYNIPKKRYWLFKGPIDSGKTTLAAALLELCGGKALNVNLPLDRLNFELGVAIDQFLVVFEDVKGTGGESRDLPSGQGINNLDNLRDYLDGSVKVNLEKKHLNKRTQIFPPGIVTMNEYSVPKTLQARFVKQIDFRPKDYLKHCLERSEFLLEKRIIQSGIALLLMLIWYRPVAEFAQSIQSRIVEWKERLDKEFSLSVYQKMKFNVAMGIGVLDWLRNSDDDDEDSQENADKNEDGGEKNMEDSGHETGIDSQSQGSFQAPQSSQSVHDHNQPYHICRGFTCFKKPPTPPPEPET

[3] = molecular target: FAD-linked sulfhydryl oxidase ALR (Homo sapiens, UniProt P55789); assay: ALR-catalysed DTT oxidation blockers – biochemical, H2O2 detection, luminescence, cherry-pick, dose response (AID 493248)
Chain of FAD-linked sulfhydryl oxidase ALR (P55789 whole entry): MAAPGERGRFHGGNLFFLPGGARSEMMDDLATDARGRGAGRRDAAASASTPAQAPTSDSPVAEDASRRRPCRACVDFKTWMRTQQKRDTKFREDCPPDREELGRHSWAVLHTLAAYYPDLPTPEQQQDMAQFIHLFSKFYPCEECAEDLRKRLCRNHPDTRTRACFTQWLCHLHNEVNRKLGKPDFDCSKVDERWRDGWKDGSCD

[4] = molecular target: T2, Polyadenylate-binding protein 1 (Homo sapiens, UniProt P11940); assay: MLLE binding blockers, Cy5 peptide tracer – biochemical, fluorescence polarization, Cy5-PAM2 peptide, secondary, miRNA deadenylation inhibitor project, dose response (AID 602260); type: functional; settings: read-out: IC50_Mean
T2 sequence (P11940 whole entry, the tested form may be a part): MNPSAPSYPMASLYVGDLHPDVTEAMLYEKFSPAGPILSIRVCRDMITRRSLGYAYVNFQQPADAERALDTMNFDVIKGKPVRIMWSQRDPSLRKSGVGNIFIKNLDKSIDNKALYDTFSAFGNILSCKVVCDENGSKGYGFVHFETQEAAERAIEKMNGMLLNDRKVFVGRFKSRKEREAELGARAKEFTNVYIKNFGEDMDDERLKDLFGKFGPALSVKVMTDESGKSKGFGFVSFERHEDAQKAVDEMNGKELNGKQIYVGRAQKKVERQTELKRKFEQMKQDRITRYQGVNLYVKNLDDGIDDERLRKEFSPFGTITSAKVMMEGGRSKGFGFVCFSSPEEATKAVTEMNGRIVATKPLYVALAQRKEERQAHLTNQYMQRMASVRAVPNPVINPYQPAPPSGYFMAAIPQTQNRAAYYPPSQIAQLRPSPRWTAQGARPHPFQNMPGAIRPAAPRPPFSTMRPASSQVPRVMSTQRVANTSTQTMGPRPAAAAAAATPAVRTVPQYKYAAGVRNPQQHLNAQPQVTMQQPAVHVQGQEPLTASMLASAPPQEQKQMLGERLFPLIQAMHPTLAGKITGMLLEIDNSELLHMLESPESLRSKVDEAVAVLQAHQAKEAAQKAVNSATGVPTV

[5] = molecular target: T2, Polyadenylate-binding protein 1; assay: MLLE domain peptide-binding blockers, IC50 – biochemical, fluorescence polarization, FITC-PAM2 peptide, dose response (AID 602259); type: functional; settings: read-out: IC50_Mean
[6] = Luminescence Cell-Based Dose Confirmation HTS to Identify Activators of 5'UTR Stem-Loop Driven Alpha-Synuclein mRNA Translation in H4 Neuroglioblastoma Cells. [Related pubchem assays: 1829 (Project Summary), 1814 (Primary HTS)]; type: functional
[7] = Luminescence Cell-Based Dose Response HTS to Identify Activators of Luciferase Translation or Activity in H4 […] Cells. [Related pubchem assays: 1829 (Project Summary), 1814 (Primary HTS)]; type: functional
H4 = assay: Luminescence Cell-Based Dose Response HTS to Identify Activators of 5'UTR Stem-Loop Driven Prion Protein mRNA Translation in H4 Neuroglioblastoma Cells. [Related pubchem assays: 1829 (Project Summary), 1814 (Primary HTS)]; type: functional; settings: Homo sapiens
[8] = molecular target: T3, Ubiquitin-conjugating enzyme E2 N (Homo sapiens, UniProt P61088); type: functional;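 further: Dose-response confirmation in a TR-FRET assay detecting UBC13-driven polyubiquitin chain formation, inhibition measured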
T3 sequence (P61088 whole entry): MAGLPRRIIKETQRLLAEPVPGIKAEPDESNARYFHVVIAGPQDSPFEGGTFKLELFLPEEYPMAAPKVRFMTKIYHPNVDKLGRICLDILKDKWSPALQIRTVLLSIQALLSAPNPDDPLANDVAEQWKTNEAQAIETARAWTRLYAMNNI

[9] = NIH-3T3 fibroblast cytotoxicity, dose response, cytotoxicity control, cell-based, fluorescence, Alamar Blue, secondary assay (AID 2327); type: functional;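 further: NIH-3T3 mouse fibroblasts cultured with fluconazole at 8 µg/mL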
[10] = fluconazole-exposed Candida albicans growth modulators – fluorescence, retest, confirmation (AID 2467); type: functional, cell-based
[11] = molecular target: T4, Heat shock factor protein 1 (Mus musculus, UniProt P38532); assay: decrease of HSF1-responsive luciferase luminescence – cell-based, NIH3T3, dose retest, confirmation (AID 2382); type: functional;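 further: NIH3T3 fibroblasts with HSF1-driven luciferase reporter stressed by proteasome inhibitor MG132; luminescence from HSF1-driven luciferase expression after 8 hours of MG132 stress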
T4 sequence (P38532 whole entry): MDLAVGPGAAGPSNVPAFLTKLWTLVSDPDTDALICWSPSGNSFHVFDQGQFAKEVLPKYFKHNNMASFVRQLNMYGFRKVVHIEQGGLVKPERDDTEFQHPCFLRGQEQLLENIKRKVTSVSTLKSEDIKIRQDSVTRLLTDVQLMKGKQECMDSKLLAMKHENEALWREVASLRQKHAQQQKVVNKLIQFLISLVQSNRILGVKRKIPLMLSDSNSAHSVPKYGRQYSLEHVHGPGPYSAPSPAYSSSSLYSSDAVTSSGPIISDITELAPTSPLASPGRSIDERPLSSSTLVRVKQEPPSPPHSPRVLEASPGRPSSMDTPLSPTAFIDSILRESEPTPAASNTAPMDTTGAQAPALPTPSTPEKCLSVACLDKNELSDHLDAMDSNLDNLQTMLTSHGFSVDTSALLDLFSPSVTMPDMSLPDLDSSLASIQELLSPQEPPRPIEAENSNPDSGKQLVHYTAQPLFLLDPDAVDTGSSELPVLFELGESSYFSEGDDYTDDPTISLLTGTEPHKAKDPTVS

P388/ADR = assay: cells; type: functional; settings: Mus musculus
SN12K1 = assay: cells; type: functional
P388 = assay: cells; type: functional
HEK293 = assay: EBV LMP1 TES2 canonical NF-kB signalling blockers – cell-based, HEK293, luciferase, cherry-pick, dose response (AID 588343); type: functional; settings: Homo sapiens
[12] = molecular target: Luciferin 4-monooxygenase (Photinus pyralis, UniProt P08659); assay: inhibition of purified Photinus pyralis luciferase – biochemical, luminescence, dose response (AID 1891)
Chain of Luciferin 4-monooxygenase (P08659 whole entry): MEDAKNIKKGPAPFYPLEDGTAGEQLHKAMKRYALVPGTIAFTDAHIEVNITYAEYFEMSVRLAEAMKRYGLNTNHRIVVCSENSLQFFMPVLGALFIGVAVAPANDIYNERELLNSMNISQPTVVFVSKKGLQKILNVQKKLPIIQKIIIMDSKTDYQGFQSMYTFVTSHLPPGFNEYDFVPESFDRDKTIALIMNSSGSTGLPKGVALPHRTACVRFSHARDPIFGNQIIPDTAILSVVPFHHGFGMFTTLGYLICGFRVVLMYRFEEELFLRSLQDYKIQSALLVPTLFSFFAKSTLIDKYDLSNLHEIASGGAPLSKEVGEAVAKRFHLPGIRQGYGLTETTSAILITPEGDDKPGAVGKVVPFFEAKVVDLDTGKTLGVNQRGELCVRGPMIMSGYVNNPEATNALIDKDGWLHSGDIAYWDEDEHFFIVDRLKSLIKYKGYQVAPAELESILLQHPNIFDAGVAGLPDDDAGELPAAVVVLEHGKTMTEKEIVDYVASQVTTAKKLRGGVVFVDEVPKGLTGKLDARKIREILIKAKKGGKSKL

[13] = Luminescence Cell-Based Dose Confirmation HTS to Identify Inhibitors of Platelet Dense Granule Release. [Related pubchem assays: 1663 (Primary HTS), 1678 (Summary of Project)]; type: functional

## COc1ccccc1CN(C)C(=O)c1cc(-c2cc(OC)c(OC)c(OC)c2)nc2ccccc12
H9c2
  IC50: 29.1 µM (active)

## Cc1cccc(NC(=O)CN2C(=O)N/C(=C/c3cc(C)n(-c4cccnc4)c3C)C2=O)c1
[1]
  IC50: > 50 µM (not active)

## O=C(NCCCN1CCOCC1)c1ccc(CSc2ccc(Cl)cc2)cc1
[2]
  AC50: 1.25 µM (active)
cells
  IC50: 34.3 µM (active)
Vero
  CC50: > 25 µM (active)

## CN1CCN(S(=O)(=O)c2ccc(N3CCN(c4ccc(O)cc4)CC3)c([N+](=O)[O-])c2)CC1
Large T antigen
  IC50: 8.6 µM (active)
[3]
  AC50: 2.62 µM (active)

## COc1cc(NS(=O)(=O)c2ccc(NC(=S)NC(=O)c3sc4ccccc4c3Cl)cc2)nc(OC)n1
[1]
  IC50: > 50 µM (not active)
[4]
  IC50: > 66 µM (inactive)
[5]
  IC50: > 66 µM (inactive)

## O=C(NCCc1ccccc1Cl)c1ccc2nc3ccccc3c(=O)n2c1
[6]
  EC50: 10.2 µM (active)
[7]
  EC50: > 120 µM (not active)
H4
  EC50: > 120 µM (not active)
H9c2
  IC50: > 79 µM (inactive)

## COc1ccc2[nH]cc(CCNC(=O)Nc3ccccc3)c2c1
[8]
  IC50: > 20 µM (inactive)

## CCOC(=O)C(=NC1CCCCC1)NNc1cccc(C(F)(F)F)c1
[9]
  EC50: > 150 µM (inconclusive)
[10]
  EC50: > 38 µM (not active)

## Cc1c(O)cc2n(c1=O)-c1ccc(Cl)cc1C2(C)C
[9]
  EC50: > 150 µM (inactive)
[10]
  EC50: 2 µM (active)

## O=c1c2cc(-c3ccccc3)sc2nc2n1N=C(c1ccccc1)CS2
Vero
  CC50: > 25 µM (active)

## CCc1nnc(NC(=O)CSc2nnc(CNc3ccc(OC)cc3)n2C)s1
H9c2
  IC50: 28.3 µM (active)

## O=C(NCC1CCN(Cc2ccccc2F)CC1)C1CCCN(c2ncnc3c2nc2n3CCCCC2)C1 (stereo unspecified)
[8]
  IC50: > 20 µM (inactive)

## Cc1ccc(S(=O)(=O)N2CCCCC2)cc1NC(=O)COC(=O)c1ccc2c(c1)OCO2
[1]
  IC50: 1.74 µM (not active)

## CCc1ccc(C(C)NC(=O)c2cc(C)oc2C)cc1 (stereo unspecified)
H9c2
  IC50: > 79 µM (inactive)

## c1cc2[nH]c(C3CC3)nc2c2nsnc12
H9c2
  IC50: > 79 µM (inactive)

## CC[C@H](C)[C@@H]1NC(=O)c2cc([N+](=O)[O-])cc(F)c2NCCCC[C@@H](C(N)=O)NC(=O)[C@H](CCCCN)NC1=O
[8]
  IC50: > 20 µM (inactive)

## CC(NC(=O)Nc1ccccc1F)C(C)(C)C (stereo unspecified)
[9]
  EC50: > 160 µM (inconclusive)

## CCCN1CCN(CCCNC(=O)c2cc3c(O)nc4ccc(C)cc4c3s2)CC1
Vero
  CC50: > 25 µM (active)

## Cc1cc(C)cc(SCc2noc(C(=O)NCc3ccccc3)c2C(=O)NCc2ccccc2)c1
[11]
  EC50: > 195 µM (not active)
[1]
  IC50: 6.27 µM (not active)

## CC(C)n1c(O)c(N=NC(=O)CNC(=O)CCc2ccccc2)c2ccccc21
[1]
  IC50: > 50 µM (not active)

## COc1ccc(CCNC(=O)CCC2COc3ccccc3O2)cc1OC (stereo unspecified)
[9]
  EC50: > 150 µM (inactive)
[10]
  EC50: 16.9 µM (active)

## C#CCOCCOCCOCCNc1nc(N2CCN(C(=O)[C@H]([C@@H](C)CC)n3cc([C@@H](N)Cc4ccc(O)cc4)nn3)CC2)nc(N2CCN(C(=O)[C@H](CCCCN)n3cc([C@@H](N)CO)nn3)CC2)n1
[8]
  IC50: > 20 µM (inactive)

## O=C(Nc1nc(-c2cc(F)ccc2F)cs1)C1=NN(c2ccccc2)C(=O)CC1
H9c2
  IC50: > 79 µM (inactive)

## CCOc1ccc2nc(N(CCCN(C)C)C(=O)c3ccc(C(=O)c4ccccc4)cc3)sc2c1
[8]
  IC50: > 20 µM (inactive)

## Cc1ccc(CN(C(=O)CNC(=O)c2cccs2)C(C(=O)NCC2CCCO2)c2ccccc2)cc1 (stereo unspecified)
H9c2
  IC50: > 79 µM (inactive)

## Cc1ccc(NCc2nnc(SCC(=O)N(Cc3ccccc3)C(C)(C)C)o2)c(C)c1
[1]
  IC50: 5.13 µM (not active)

## C=C1C(=O)OCC2C(C(=O)O)=CC3C(C)C(C)=CC123 (stereo unspecified)
P388/ADR
  GI50: 5.77 µM (inactive)
SN12K1; Homo sapiens, SN12K1
  GI50: 9.08 µM (inactive)
P388; Mus musculus, P388
  GI50: 5.21 µM (inactive)

## NC(=S)NN=Cc1nccc2c(C(F)(F)F)cccc12
HEK293
  AC50: 1.77 µM (active)
Vero
  CC50: 2.01 µM (active)

## CC(=O)c1ccc2c(c1)c1c(C)c3c[n+](C)ccc3c(C)c1n2C
P388/ADR
  GI50: 3 µM (inactive)
SN12K1; Homo sapiens, SN12K1
  GI50: 1.34 µM (inactive)
P388; Mus musculus, P388
  GI50: 0.634 µM (active)

## Clc1ccccc1-c1nc(N/N=C/c2cccnc2)c2ccccc2n1
[12]
  EC50: > 112 µM (not active)
[13]
  EC50: > 112 µM (not active)
H9c2
  IC50: > 79 µM (inactive)

## CC1OC(O[C@@H]2C=C3CC[C@@H]4[C@H](CC[C@]5(C)[C@@H](c6ccc(=O)oc6)CC[C@]45O)[C@@]3(C)CC2)C(O)C(O)C1O (stereo partly specified)
P388/ADR
  GI50: 47.1 µM (inactive)
P388; Mus musculus, P388
  GI50: 20.7 µM (inactive)

## CN(C)CC(CC1=C(CC(CN(C)C)N(C)C)CCC1)N(C)C (stereo unspecified)
P388/ADR
  GI50: > 100 µM (inactive)
SN12K1; Homo sapiens, SN12K1
  GI50: > 100 µM (inactive)
P388; Mus musculus, P388
  GI50: > 100 µM (inactive)

## CCCCCCCCCCSCC(CO)NC(=O)/C=C/c1c(C)[nH]c(=O)[nH]c1=O (stereo unspecified)
SN12K1
  GI50: 1.26 µM (inactive)
SN12K1; Homo sapiens, SN12K1
  GI50: 1.05 µM (active)
P388
  GI50: 0.479 µM (active)
P388; Mus musculus, P388
  GI50: 0.284 µM (active)

## COc1cccc2c1C(=O)c1c(O)c3c(c(O)c1C2=O)CC(O)(C(C)=O)CC3O (stereo unspecified)
P388/ADR
  GI50: 1.81 µM (inactive)
SN12K1; Homo sapiens, SN12K1
  GI50: 2.07 µM (inactive)
P388; Mus musculus, P388
  GI50: 1.09 µM (active)

## CN(C)C(=O)/C=C/c1c[nH]c(=O)[nH]c1=O
P388/ADR
  GI50: > 281 µM (inactive)
SN12K1; Homo sapiens, SN12K1
  GI50: > 500 µM (inactive)
P388; Mus musculus, P388
  GI50: > 281 µM (inactive)

## Nc1ccc(/N=N/c2ccc(/C=C/c3ccc(/N=N/c4ccc(N)c5ccc(S(=O)(=O)O)cc45)cc3S(=O)(=O)O)c(S(=O)(=O)O)c2)c2cc(S(=O)(=O)O)ccc12
P388/ADR
  GI50: > 100 µM (inactive)
SN12K1; Homo sapiens, SN12K1
  GI50: > 100 µM (inactive)
P388; Mus musculus, P388
  GI50: > 100 µM (inactive)

## CN(C)/N=C/c1cc([N+](=O)[O-])ccc1O
[1]
  IC50: 13.8 µM (not active)

## Cc1[nH]c2ccccc2c1/C=N\NC(=O)Cn1nnc(-c2ccccc2)n1
[1]
  IC50: > 50 µM (not active)

## C(=C\c1ccccc1)/C=N/Nc1nc(N2CCCCC2)nc(N2CCCCC2)n1
[9]
  EC50: > 150 µM (inactive)
[10]
  EC50: > 38 µM (not active)
